# According to patent US20100292289A1 (priority 2007, published 2010):
# Read-outs that look alike come from different tables or passages of the source.
# How the values were obtained:
# [1] = system: non-insulin dependent diabetic mellitus (NIDDM) male mice (C57BL/KsJ-db/db Jcl); experiment: In vivo analysis in the db/db mouse (serum insulin, serum glucose, weight); conditions: for percentage increase in insulin levels: FIG. 1; for percentage decrease in glucose levels: FIG. 2; for percentage decrease in weight: FIG. 3
# Method: […] All animals were allowed free access to normal laboratory chow and water.
# Serum glucose and insulin levels were determined by Enzymatic Method (Mutaratase-GOD) and ELISA (mouse insulin assay kit) from orbital sinus blood samples obtained before (pretreatment) and 90 minutes after the last vehicle and/or test substance administration (postreatment) and percent change was determined.
# in vivo = experiment: in vivo; parameters: species or system Sprague-Dawley rats; conditions: rat; for bioavailability: male, Sprague-Dawley, po, 20 mg/kg; for half-life: male Sprague-Dawley rats
# Method: The pharmacokinetics of compounds 4a, 6a, and 12 was evaluated in male Sprague-Dawley rats (n=3) following single intravenous (i.v., 1 mg/kg) or oral (p.o., 20 mg/kg) doses.
# CB1 receptor [2] = molecular target: T1, CB1 receptor (Homo sapiens, UniProt P21554); experiment: FLIPR calcium flux assay, agonist format, CB1; type: cell-based; conditions: Emax of reference agonist CP-55,940 as 100%
# T1 sequence (P21554 whole entry): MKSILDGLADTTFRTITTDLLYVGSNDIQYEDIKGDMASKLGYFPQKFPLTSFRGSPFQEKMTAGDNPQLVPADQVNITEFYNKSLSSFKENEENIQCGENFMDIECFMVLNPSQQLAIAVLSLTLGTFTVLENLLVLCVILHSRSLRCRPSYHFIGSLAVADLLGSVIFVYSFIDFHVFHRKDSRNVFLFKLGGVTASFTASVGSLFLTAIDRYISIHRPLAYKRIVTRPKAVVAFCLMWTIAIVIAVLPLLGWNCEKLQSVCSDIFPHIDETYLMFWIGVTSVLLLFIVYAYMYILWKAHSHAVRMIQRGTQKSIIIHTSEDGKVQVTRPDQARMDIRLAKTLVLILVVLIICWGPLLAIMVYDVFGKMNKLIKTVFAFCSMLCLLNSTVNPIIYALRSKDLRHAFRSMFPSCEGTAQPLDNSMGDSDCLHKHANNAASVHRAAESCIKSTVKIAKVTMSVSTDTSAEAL
# Method: (§1) A FLIPR assay was conducted to monitor agonist and antagonist selectivity for compounds of the invention against the CBI and GLP-1 receptors. Percentage activation and percentage inhibition values were determined for each compound on each of the GPCRs listed above. Agonist selectivity was determined upon initial addition of compounds followed by 10 minute incubation at 25° C. Following compound incubation, reference agonists were added at EC80 to determine percentage inhibition.
# (§2) Agonist percentage activation determinations were obtained by assaying sample compounds and referencing the Emax control for each of the GPCRs profiled. Antagonist percentage inhibition determinations were obtained by assaying sample compounds and referencing the control EC80 wells for each of the GPCRs profiled. The protocol design is as follows:
# (§3) Unless specified otherwise, all sample compounds were diluted in 100% anhydrous DMSO including all serial dilutions. Occasionally sample compounds were provided in a different solvent, in this case all master stock dilutions were performed in the specified diluent. All control wells contained identical solvent final concentrations as sample compound wells.
# (§4) Sample compounds were transferred from a master stock solution into a daughter plate that was used in the assay. Each sample compound was diluted into assay buffer (1×HBSS with 20 mM HEPES) at an appropriate concentration to obtain final concentrations.
# (§5) All sample compounds were plated at 1 μM in duplicate for assaying against all GPCRs. Reference agonists were handled as mentioned above serving as assay control. These reference agonists were handled as described above for both EMax and EC80 control wells. Assay was read for 90 seconds using the FLIPRTETRA. (This assay run added sample compounds and reference agonist to respective rows.) At the completion of the first “Single Addition” assay run, assay plate was removed from the FLIPRTetra and placed at 25° C. for 10 minutes.
# (§6) All plates were subjected to appropriate baseline corrections. Once baseline corrections were processed, maximum fluorescence values were exported and data manipulated to calculate percentage activation, percentage inhibition, Z′, EC50, and IC50. Percentage activation data was calculated using Emax as 100% control. Percentage inhibition was calculated using EC80 as 0% inhibition.
# GLP-1 receptor [3] = molecular target: T2, GLP-1 receptor (Homo sapiens, UniProt P43220); experiment: FLIPR calcium flux assay, agonist format, GLP-1; type: cell-based; conditions: Emax of reference ligand Glucagon as 100%
# T2 sequence (P43220 24-463): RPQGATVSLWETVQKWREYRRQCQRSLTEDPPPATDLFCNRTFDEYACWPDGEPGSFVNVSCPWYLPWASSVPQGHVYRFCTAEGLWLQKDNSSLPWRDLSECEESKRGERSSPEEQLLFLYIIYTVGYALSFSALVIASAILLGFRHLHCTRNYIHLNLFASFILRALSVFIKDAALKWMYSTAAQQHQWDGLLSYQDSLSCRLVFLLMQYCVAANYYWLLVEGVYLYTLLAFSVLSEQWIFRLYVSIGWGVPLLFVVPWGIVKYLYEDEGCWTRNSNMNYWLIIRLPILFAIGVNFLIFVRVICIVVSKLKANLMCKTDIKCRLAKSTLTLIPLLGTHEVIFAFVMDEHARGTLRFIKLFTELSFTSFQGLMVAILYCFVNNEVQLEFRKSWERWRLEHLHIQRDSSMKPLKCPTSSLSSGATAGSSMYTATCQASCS
# Method: as §1, §2, §3, §4, §5, §6
# CB1 receptor [4] = molecular target: T1, CB1 receptor; experiment: FLIPR calcium flux assay, antagonist format, CB1; type: cell-based; conditions: reference agonist CP-55,940 at EC80 as 0% inhibition
# Method: as §1, §2, §3, §4
# (§7) Using the EC50 values determined previously, stimulated all pre-incubated sample compound and reference antagonist (if applicable) wells with EC80 of reference agonist. Read for 90 seconds using the FLIPRTETRA. (This assay added reference agonist to respective wells—then fluorescence measurements were collected to calculate percentage inhibition.)
# as §6
# GLP-1 receptor [5] = molecular target: T2, GLP-1 receptor; experiment: FLIPR calcium flux assay, antagonist format, GLP-1; type: cell-based; conditions: 1 μM, reference ligand Glucagon at EC80 as 0% inhibition; read-out: % Inhibition Antagonist GLP-1
# Method: as §1, §2, §3, §4, §7, §6
# [6] = iv, single i.v. dose 1 mg/kg, read-out: t1/2 (i.v., hr) (converted)
# [7] = single oral dose 20 mg/kg, read-out: t1/2 (p.o., hr) (converted)
# [8] = 200 mg/kg oral gavage once daily for three days
SMILES,percentage increase in insulin levels ([1]; 300 mg/kg oral),percentage decrease in glucose levels ([1]; 300 mg/kg oral),percentage decrease in weight ([1]; 300 mg/kg oral),bioavailability (in vivo),half-life (in vivo; [6]),half-life (in vivo; [7]),activation at 1 µM (CB1 receptor [2]),activation at 1 µM (GLP-1 receptor [3]),inhibition at 1 µM (CB1 receptor [4]),inhibition at 1 µM (GLP-1 receptor [5]),"percentage increase in insulin levels [1, 8]","percentage decrease in glucose levels [1, 8]","percentage decrease in weight [1, 8]",percentage increase in insulin levels ([1]; 100 mg/kg oral gavage once daily for three days)
"CN(C)C(=N)N=C(N)N [metformin, reference compound]",does not show an increase,significant decrease,does not show a decrease,–,–,–,–,–,–,–,–,–,–,–
CC(C)Cc1ccc([C@H](C)C(=O)NCC[C@@H](Oc2ccc(C(F)(F)F)cc2)c2ccccc2)cc1 [Compound 4a],–,–,–,5.1%,0.6 h,1 h,3.2%,39.9%,7.7%,-21.8%,–,–,–,–
CC(C)Cc1ccc([C@H](C)C(=O)N(C)CCC(Oc2ccc(C(F)(F)F)cc2)c2ccccc2)cc1 (stereo partly drawn) [Compound 12],–,–,–,6.5%,1.7 h,1.4 h,4.1%,44.6%,3.2%,-14.9%,–,–,–,–
C[C@H](C(=O)NCC[C@@H](Oc1ccc(C(F)(F)F)cc1)c1ccccc1)c1cccc(C(=O)c2ccccc2)c1 [Compound 6a],–,–,–,14.8%,1.4 h,2.1 h,4.2%,38.6%,77.9%,-7.2%,significant increases,significant decreases,significant decreases,–
CC(C)Cc1ccc([C@H](C)C(=O)N(C)CC[C@@H](Oc2ccc(C(F)(F)F)cc2)c2ccccc2)cc1 [Compound 12a],–,–,–,–,–,–,3.6%,7.6%,52.2%,4.5%,significant increases,significant decreases,significant decreases,–
CC(C)Cc1ccc([C@H](C)C(=O)N(C)CC[C@H](Oc2ccc(C(F)(F)F)cc2)c2ccccc2)cc1 [Compound 12b],–,–,–,–,–,–,8.3%,24.5%,1.6%,5.9%,significant increases,significant decreases,significant decreases,significant increase
CC(C(=O)N(C)CC[C@@H](Oc1ccc(C(F)(F)F)cc1)c1ccccc1)c1ccc(CN(C)C)cc1 (stereo partly drawn) [Compound 25a],–,–,–,–,–,–,0.8%,-2.7%,79.9%,5.7%,–,–,–,–
C[C@H](C(=O)N(C)CCC(Oc1ccc(C(F)(F)F)cc1)c1ccccc1)c1cccc(C(=O)c2ccccc2)c1 (stereo partly drawn) [Compound 14],–,–,–,–,–,–,1.2%,-2.4%,56.6%,17.2%,–,–,–,–
CC(C)Cc1ccc(CC(=O)N(C)CC[C@@H](Oc2ccc(C(F)(F)F)cc2)c2ccccc2)cc1 [Compound 32a],–,–,–,–,–,–,4.5%,2.9%,90.7%,0.8%,–,–,–,–
